Where “and” joins values, the source holds several entries; their conditions need not be identical. Equal entries are not always repeated.
Assays:
A431 tumors = test: BIWI 1 monotherapy in A431 xenografted nude mice; format: in vivo, mouse; conditions: five consecutive days
Description: (§1) In vivo anti-tumor efficacy of BIWI 1 was tested in three nude mouse xenograft models applying antigen-positive human tumors: A431 (ATCC # CRL 1555; epidermoid carcinoma of the vulva), FaDu (ATCC # HTB 43; squamous cell carcinoma of the pharynx), and MDA-MB 453 (ATCC # HTB-131; breast carcinoma). The cells were received from ATCC and cultured in RPMI1640 medium containing 10% fetal calf serum and supplements. 1×10^6 tumors cells were transplanted subcutaneously into the right flank of 6 week old female NMRI-nu/nu mice. Tumor growth was monitored by measuring tumor size. A tumor response was rated as complete response when the tumor completely disappeared at any time after start of treatment. The response was rated as partial response when the tumor volume decreased after treatment but thereafter started regrowing. The tolerability of the treatment was monitored by measuring mouse weight during the observation period.
Mice were randomised into the following treatment groups (treatment/initial mean tumor volume/tumor volume range/number of mice): • Group 1: Control (PBS)/185±217 mm^3/19-424 mm^3/5 mice. • Group 2: BIWA 4 (21 mg/kg/d)/133±115 mm^3/42-302 mm^3/5 mice. • Group 3: BIWI 1 (2.1 mg/kg/d)/107±63 mm^3/42-205 mm^3′/5 mice. • Group 4: BIWI 1 (7 mg/kg/d)/132±73 mm^3/42-205 mm^3/5 mice. • Group 5: BIWI 1 (21 mg/kg/d)/107±[…]/42-205 mm^3/5 mice.
(§2) Groups of 5 mice were treated with 2.1 mg/kg/d BIWI 1, 7 mg/kg/d BIWI 1, 21 mg/kg/d BIWI 1, and 21 mg/kg/d control antibody, respectively. Treatment consisted of i.v. injections of BIWI 1 given on five consecutive days, starting at day 1.

FaDu tumors = test: BIWI 1 monotherapy in FaDu xenografted nude mice; format: in vivo, mouse; conditions: five consecutive days
Description: as §1
Mice were randomised into the following treatment groups (treatment/initial mean tumor volume/tumor volume range/number of mice): • Group 1: Control (PBS)/142±82 mm^3/34-268 mm^3 /8 mice. • Group 2: BIWA 4 (21 mg/kg/d)/134±86 mm^3/42-268 mm^3/6 mice. • Group 3: BIWI 1 (2.1 mg/kg/d) 149±96 mm^3/50-268 mm^3/6 mice. • Group 4: BIWI 1 (7 mg/kg/d)/132±97 mm^3 42-268 mm^3/6 mice. • Group 5: BIWI 1 (21 mg/kg/d)/129±74 mm^3/50-231 mm^3/6 mice.
as §2, with “6” for “5”, “1. […] The remaining 2 tumors grew similar to untreated control tumors.” for “1.”

MDA-MB 453 tumors = test: BIWI 1 monotherapy in MDA-MB 453 xenografted mice; format: in vivo, mouse
Description: as §1
Groups of 6 mice were treated with 6.25 mg/kg BIWI 1, 12.5 mg/kg BIWI 1, and 25 mg/kg BIWI 1, respectively. Treatment consisted of i.v. injections of BIWI 1 given weekly for four weeks. The average tumor size at start of treatment was 246±/−79 mm^3 (PBS), 216 +/85 mm^3 (6.25 mg/kg BIWI 1), 188±/−79 mm^3 (12.5 mg/kg BIWI 1), and 207±/−96 mm3 (25 mg/kg BIWI 1), respectively. The initial tumor volume doubling time of the control tumors was approximately 5 days. […] Tumors treated with 12.5 mg/kg or 6.25 mg/kg responded completely in 5/6 cases in each dose group, and 4 animals of each group stayed tumor free until the end of the experiment.

[1] = Tolerability of BIWI 1 monotherapy in nude mice (mouse weight); format: in vivo; conditions: FaDu xenografted mice, 21 mg/kg/d BIWI 1
Description: as §1
The tolerability of BIWI 1 monotherapy was determined by monitoring mouse weight during the whole duration of the experiment in the 2 models. The maximum observed average weight loss per group was 6% in FaDu xenografted mice treated with 21 mg/kg/d BIWI 1 (FIG. 5). The weight loss started around day 3 of treatment and lasted until day 10, thereafter animals regained weight and behaved similar as control animals. […]

MDA-MB-453 tumors = conditions: BIWI 1 75 μg/kg DM1 i.v. q7dx4
Description: Experiments were performed using nude mice xenografted subcutaneously with the human breast carcinoma cell line MDA-MBA53. […] The efficacy of these combinations was compared to those of the respective monotherapies by i) analysing the tumor volumes over time and ii) by determining the time for tumors to reach a certain size (tumor growth delay).
The dilutions were prepared freshly for each application or stored at +4° C. during the whole treatment period. […] 200 μl of solutions with different concentrations were injected into the tail vein. Docetaxel (Taxotere®, Aventis, 10 mg/ml) was diluted in 0.9% NaCl. 200 μl of solutions with different concentrations were injected into the tail vein.
Briefly, 1×10^7 MDA-MB-453 cells (ATCC No. HTB-131) were injected into the mammary fat pad of female NMRI nu/nu mice. After reaching a volume of approximately 1000 mm^3 tumors were excised, cut into 4×4 mm pieces and passaged further subcutaneously. Tumor fragments were cryoconserved in 90% RPMI 1640/10% dimethylsulfoxide (slow freezing process down to −80° C., storage in liquid nitrogen). For further passaging, frozen tumor fragments were thawed, washed 3 times in PBS and implanted subcutaneously into the right and left flanks of a 4-5 female NMRI nu/nu mice. Tumors of these mice were then used to prepare the animals for a therapy experiment. Tumors were excised with a size of approximately 10 mm in diameter, cut into 2×2 mm pieces and implanted subcutaneously into the right flank of 6-8 week old female NMRI nu/nu mice. Approximately twice as many animals as needed for the experiment were prepared. When tumors reached a size of 5-10 mm in diameter (10-14 days after implantation), animals were randomised and treatments were started. Animals were obtained from Harlan (Germany) or M&B (Denmark). Tumor sizes and body weights were recorded as described in Section 2.7.

[2] = 7 mg/kg/d or 21 mg/kg/d BIWI 1 i.v.
[3] = 25 mg/kg BIWI 1 i.v. weekly for four weeks

BIWI 1
tumors with partial response (A431 tumors; 2.1 mg/kg/d BIWI 1 i.v., 5 mice): 2
complete responses (A431 tumors; 2.1 mg/kg/d BIWI 1 i.v., no regrowth until day 134): 3/5
day on which tumors disappeared (A431 tumors; [2]): ~17 days
tumor regrowth until end of observation period (day 134) (A431 tumors; [2]): No tumor regrowth
tumor response (A431 tumors; [2]): all tumors responded completely
tumor volume doubling time (FaDu tumors; 2.1 mg/kg/d BIWI 1 i.v.): approximately 5 days
complete responses (FaDu tumors; 7 mg/kg/d BIWI 1 i.v.): 1/6
partial responses (FaDu tumors; 7 mg/kg/d BIWI 1 i.v.): 3/6
day on which tumors disappeared (FaDu tumors; 21 mg/kg/d BIWI 1 i.v.): ~24 days
tumor regrowth until end of observation period (day 107) (FaDu tumors; 21 mg/kg/d BIWI 1 i.v.): No tumor regrowth
tumor response (FaDu tumors; 21 mg/kg/d BIWI 1 i.v.): all tumors responded completely
animals tumor free until the end of the experiment (MDA-MB 453 tumors; 12.5 mg/kg or 6.25 mg/kg BIWI 1, each group of 6 mice): 4
complete responses (MDA-MB 453 tumors; 12.5 mg/kg or 6.25 mg/kg BIWI 1 i.v. weekly for four weeks, in each dose group): 5/6
day on which tumors disappeared (MDA-MB 453 tumors; [3]): ~22 days
tumor regrowth until end of observation period (day 64) (MDA-MB 453 tumors; [3]): No tumor regrowth
tumor response (MDA-MB 453 tumors; [3]): all tumors responded completely
maximum observed average weight loss per group [1]: 6%
GDF4 (MDA-MB-453 tumors): 1.3
T4T (MDA-MB-453 tumors): 14 days and 14.1 days
T/C (d 16) (MDA-MB-453 tumors): 75%
